Data as given in patent US6692927B2, “Bax degradation involvement in tumor survival and progression” (University of South Florida, priority 2000, dated 2004).
Where a SMILES comes first, the peptide text is derived from it. [ ]: non-standard residue; d: D form. The star is where a group is joined. Nva = CCC[C@H](N)C(=O)O; Cbz = O=C(OCc1ccccc1)*

How the values were obtained:
[1] = system: SV40-transformed (VA-13) cells; experiment: PARP cleavage, cytochrome c release and Bax accumulation in SV40-transformed fibroblasts; type: cell-based, human
Source text: (§1) Proteasome inhibitors activate Bax- and cytochrome c-dependent apoptosis pathway preferentially in transformed human fibroblasts. Normal human fibroblasts are more resistant to proteasome inhibitor-induced apoptosis than transformed and cancer cells (An et al., in press). This is probably due to inability of the normal cells to accumulate Bax protein in response to proteasome inhibition, and consequently failure to release cytochrome c. To test this hypothesis, both SV40-transformed and normal WI-38 cells were treated with 50 microM LLnV for up to 24 hours, followed by measurement of PARP cleavage, cytochrome c release and Bax accumulation. […] In contrast, only after 24 hours treatment, low levels of p85/PARP fragment and cytosolic cytochrome c were detected in normal WI-38 cells (FIGS. 1, A, B, lanes 8-14). […] The levels of Bax/p21 were increased at as early as 4 hours and remained high afterwards. […] The level of another band of ˜47 kDa increased at 4 hours, further increased between 6 and 12 hours, and then decreased (FIG. 1C). The p70 and p47 bands can contain ubiquitinated forms of Bax since similar polypeptides were detected by antibodies to both Bax and ubiquitin (Li et al., 1999). […] Therefore, although unable to activate the Bax- and cytochrome c-dependent apoptotic pathway in response to a low concentration of a proteasome inhibitor, normal cells are capable of undergoing Bax- and cytochrome c-independent apoptosis in response to a proteasome inhibitor at higher concentrations.
(§2) SV40-transformed (VA-13) and normal WI-38 cells were treated with 50 microM LLnV or DMSO (letter D) for up to 24 hours, followed by measurement of PARP cleavage (A), cytochrome c release (B) and Bax accumulation (C; also see FIG. 2). Panel D, exponentially grown VA-13 cells were pretreated with 50 microM LLnV or DMSO for 1 hour, washed with methionine-free medium, and then incubated for 30 minutes in methionine-free medium plus 50 microM LLnV (or DMSO). This was followed by replacing fresh methionine-free medium containing 150 microCi/ml of [^35S]-methionine, 10% dialyzed FBS and 50 microM LLnV (or DMSO). Cells were further incubated for 6 hours, followed by preparation of [^35S]-labeled protein lysates and Bax immunoprecipitates (6A7, PharMingen). The labeled Bax bands are indicated. […] Bax-alpha subcloned into pcDNA3 was used for coupled in vitro transcription/translation in the presence of [^35S]methionine. For Bax cleavage assay, the whole cell extracts were prepared. The [^35S]-labeled Bax (0.7 microl) was incubated with 50 microg protein in assay buffer (containing 50 microM LLM and no Ca^2+) for 4 hours at 37° C. Following incubation, the samples were subjected to SDS gel electrophoresis and autoradiography.

normal WI-38 cells = experiment: PARP cleavage, cytochrome c release, Bax and p21 in normal fibroblasts; type: cell-based, human; conditions: 50 microM LLnV
Source text: as §1, §2

MCF-7 cells = experiment: Bax level and PARP cleavage in MCF-7 cells; type: cell-based, human; conditions: LLnV
Source text: Levels of BDA predict levels of Bax and consequently influence sensitivity of human cancer cells to proteasome inhibitor-induced apoptosis. Basal level of Bax protein in SV40-transformed WI-38 cells (VA13) was several-fold higher than that of human breast cancer MCF-7 cells (FIG. 1E, top panel, lanes 1 vs. 3). This is due to a much lower level of BDA in VA13 cells than in MCF-7 cells (FIG. 1E, lower panel, lanes 1 vs. 3). This conclusion is further confirmed by using increased amounts of protein extracts of each cell line in the cell-free BDA assay (FIG. 4A, top panel). […] In contrast, when MCF-7 cells were treated under the same conditions, Bax levels were not increased; PARP was cleaved only after 24 hours treatment, which is Bax-independent (FIG. 4B, lanes 6-9). Therefore, although highly preliminary, it appears that levels of BDA determine levels of Bax and consequently affect responsiveness of human cancer cells to proteasome inhibition-induced apoptosis.

[2] = system: normal human breast cells MCF-10A; experiment: cellular detachment of normal breast cells; type: cell-based; conditions: 48 hours or even 72 hours
Description: Proteasome inhibitors selectively induce apoptosis in human breast cancer, but not normal, cells. […] Cells of both human breast cancer lines became detached in a lactacystin-concentration-dependent manner (FIG. 3). No detachment was induced in the normal human breast cells MCF-10A after treatment with lactacystin for 48 hours (FIG. 3) or even 72 hours. Proteasome inhibition-induced detachment of breast cancer cells is due to apoptosis (An et al., in press).

| SMILES | earliest time of increased Bax/p21 levels ([1]; 50 microM LLnV) [h] | Bax levels ([1]; 50 microM LLnV, prior to release of cytochrome c) | time at which cleavage of PARP and release of cytochrome c were detected ([1]; 50 microM LLnV, up to 24 hours) [h] | Bax accumulation and apoptosis (PARP cleavage) ([1]; LLnV treatment (FIG. 4B)) | time at which low levels of p85/PARP fragment and cytosolic cytochrome c were detected (normal WI-38 cells) [h] | time after which PARP was cleaved (MCF-7 cells; Bax-independent) [h] | Bax levels (MCF-7 cells; same conditions as VA-13) | cellular detachment [2] |
| --- | --- | --- | --- | --- | --- | --- | --- | --- |
| CCC[C@@H](C=O)NC(=O)[C@H](CC(C)C)NC(=O)[C@H](CC(C)C)NC(=O)OCc1ccccc1 [LLnV] (Cbz-Leu-Leu-[Nva]-aldehyde) | 4 | dramatically increased | 8 | rapidly accumulated Bax protein and subsequently induced apoptosis | 24 | 24 | not increased | – |
| CC(=O)N[C@@H](CSC(=O)[C@]1([C@@H](O)C(C)C)NC(=O)[C@H](C)[C@@H]1O)C(=O)O [lactacystin] | – | – | – | – | – | – | – | No detachment |
